# Measurements as given in PMC6261997, “Synergistic enzymatic and bioorthogonal reactions for selective prodrug activation in living systems” (Nature Communications, 2018).
# Read-outs that look alike come from different tables or passages of the source.
# What was measured:
# [1] = In vitro decaging of TCO-Dox by 2 (UPLC-MS); conditions: TCO-Dox mixed with 2 in 25% acetonitrile in H2O, 37 °C
# Procedure: The Tz counterpart prodrug TCO-Dox was prepared according to previously published procedures using the axial tautomer of TCO[27]. After the selection of optimized Tz and TCO, the decaging reactions in our study were further characterized (Fig. 2d). After mixing 2 μL of 10 mM TCO-Dox with 2.5 μL of 20 mM 2 in 25% acetonitrile in H2O at 37 °C, the reaction mixture was analysed by ultra-performance liquid chromatography-mass spectrometry (UPLC-MS) at different time points. […] Similarly, we prepared TCO-caged coumarin (TCO-CMR, see Supplementary Methods for a detailed synthesis protocol)[23]. According to a previously developed fluorescence liberation, the fluorescence of coumarin was restored rapidly in the presence of Tz derivatives (Supplementary Fig. 6).
# HUVECs = assay: MTT cell viability / cytotoxicity assay, HUVECs; format: cell-based; conditions: for EC50: Homo sapiens, HUVEC
# Procedure: (§1) Cells were plated in flat-bottom 96-well plates at a density of 3 × 10^3 cells per well. After 12 h of cell attachment, the cell culture medium was replaced with 100 μL of pre-warmed media containing the compounds at different concentrations. After 24–72 h of incubation, cell proliferation was assessed by the MTT assay. A fresh mixture of 10 μL of thiazolyl blue tetrazolium bromide (MTT) and 90 μL of medium were freshly added to each well. After incubation for 4 h, the medium was gently removed. The formazan crystals that formed were dissolved in 110 μL of DMSO, and the absorbance was subsequently measured with a plate reader (Perkin Elmer) at 490 nm. EC50 values were calculated using Origin software. To measure the cytotoxicity of 2, HeLa cells, HUVECs, Saos-2 cells and CCC-HEH-2 cells were incubated with 100 μL of 1–500 μM 2 for 24 h, and then, cell viability was determined. To measure the cytotoxicity of TCO-Dox or Dox, HeLa cells, HUVECs, Saos-2 cells or CCC-HEH-2 cells were incubated with 200 μL of 0.001–10 μM TCO-Dox or Dox for 72 h, and the cell viability was determined. To determine the cytotoxicity of activated Dox, HeLa cells, HUVECs, […], and then, 2 was removed and 200 μL of 0.0001–10 μM TCO-Dox was added for 72 h of incubation, and cell viability was determined. […]
# (§2) Prodrug activation efficacy in cells: Cells were plated on flat bottom 96-well plates at a
# (§3) density of 3x10^3 cells per well. After 12 h attachment, cells were incubated with 100 µL
# (§4) 500 µM of 2 for 6 h before removing 2 and the addition of 200 µL 0.0001-10 µM of […]
# [2] = UPLC-MS/MS pharmacokinetic analyses in tumour, liver and plasma; format: in vivo, BALB/c nude mice; conditions: i.v. 30 mg kg-1 TCO-Dox
# Procedure: For in vivo prodrug activation, mice received an i.v. injection of 50 mg kg^−1 2 and a subsequent 30 mg kg^−1 TCO-Dox after a 2-h interval. After different time intervals, blood samples were collected from the tail veins, and then, the tumours and livers were harvested for UPLC-MS/MS analysis.
# UPLC-MS/MS analyses: UPLC-MS/MS metabolomic analyses were performed using a
# multiple reaction-monitoring mode (MRM). Data acquisition and processing were performed using LabSolutions version 5 software. Measurements were carried out at
# Dox, solvent A consisted of 0.1% formic acid in water and solvent B consisted of 0.1% formic acid in mass spectrometric grade acetonitrile; (2) for compound TCO-Dox, solvent A consisted of 100% water and solvent B consisted of 100% mass spectrometric grade acetonitrile. Injection volume was 2 or 10 L. The mass spectrometer was interfaced with the liquid chromatograph using an electrospray ion source. The nitrogen nebulizing gas flow was set at 10 L min-1 and the drying gas flow at 15 mL min-1. 4500 V were used for the interface voltage. The temperature of the block heater was maintained at 400 °C and the one of the desolvation line at 250 °C. The MRM transitions were
# Dox. The collision gas used was argon at 230 kPa. The dwell time was set to 100 msec and the pause time to 3 msec.
# Sample preparation: blood samples were collected from the tail vein of mice. Plasma […]
# HeLa cells = assay: MTT cell viability / cytotoxicity assay, HeLa cells; format: cell-based; conditions: for EC50: Homo sapiens, HeLa
# Procedure: as §1, §2, §3, §4
# CCC-HEH-2 cells = assay: MTT cell viability / cytotoxicity assay, CCC-HEH-2 cells; format: cell-based; conditions: Homo sapiens, read-out: EC50, CCC-HEH-2
# Procedure: (§5) Cells were plated in flat-bottom 96-well plates at a density of 3 × 10^3 cells per well. After 12 h of cell attachment, the cell culture medium was replaced with 100 μL of pre-warmed media containing the compounds at different concentrations. After 24–72 h of incubation, cell proliferation was assessed by the MTT assay. A fresh mixture of 10 μL of thiazolyl blue tetrazolium bromide (MTT) and 90 μL of medium were freshly added to each well. After incubation for 4 h, the medium was gently removed. The formazan crystals that formed were dissolved in 110 μL of DMSO, and the absorbance was subsequently measured with a plate reader (Perkin Elmer) at 490 nm. EC50 values were calculated using Origin software. To measure the cytotoxicity of 2, HeLa cells, HUVECs, Saos-2 cells and CCC-HEH-2 cells were incubated with 100 μL of 1–500 μM 2 for 24 h, and then, cell viability was determined. To measure the cytotoxicity of TCO-Dox or Dox, HeLa cells, HUVECs, Saos-2 cells or CCC-HEH-2 cells were incubated with 200 μL of 0.001–10 μM TCO-Dox or Dox for 72 h, and the cell viability was determined. To determine the cytotoxicity of activated Dox, HeLa cells, HUVECs, Saos-2 cells or CCC-HEH-2 cells were pre-incubated with 100 μL of 500 μM 2 for 6 h, and then, 2 was removed and 200 μL of 0.0001–10 μM TCO-Dox was added for 72 h of incubation, and cell viability was determined. […]
# Saos-2 cells = assay: MTT cell viability / cytotoxicity assay, Saos-2 cells; format: cell-based
# Procedure: as §5
# Prodrug activation efficacy in cells: Cells were plated on flat bottom 96-well plates at a density of 3x10^3 cells per well. After 12 h attachment, cells were incubated with 100 µL 500 µM of 2 for 6 h before removing 2 and the addition of 200 µL 0.0001-10 µM of TCO-Dox. Cells were further incubated for 72 h before measuring the viability by the MTT […]
# Clonogenic assay of cells in vitro: Clonogenic assay was performed according to the standard protocol.6 2×10^5 attached cells were treated with 500 µM of 2 for 6 h in culture dishes. Cells were then detached, re-suspended in cultural medium and counted accurately. The cell suspension was diluted into the desired seeding concentration and cells were seeded in 6-well plates at a density of 200 cells per well for CCC-HEH-2 and 400 cells per well for HeLa, Saos-2 and HUVECs. After incubation for 10 days, the cultural medium was removed and cells were rinsed carefully with PBS. 2 mL of a mixture of 6.0% (vol/vol) glutaraldehyde and 0.5% (wt/vol) crystal violet was added and kept for 30 min.
# The glutaraldehyde crystal violet mixture was removed carefully. The colonies were rinsed with water and dried in normal air at room temperature. The number of the colonies was counted using a stereomicroscope.
# When untreated cells are plated as a single-cell suspension at low densities, they will grow to colonies. The plating efficiency (PE) is the ratio of the number of colonies to the […]
# (Supplementary Equation 1)
# The number of colonies that arise after treatment of cells, expressed in terms of PE, is called the surviving fraction (SF): […]
# HeLa tumours = assay: Tumour inhibition test, subcutaneous HeLa xenograft; format: in vivo, BALB/c nude mice
# Procedure: All animal studies were performed in accordance with the Institutional Animal Use and Care Regulations approved by the National Institutes of Health Clinical Center/Animal Care and Use Committee (NIH CC/ACUC). Athymic female nude mice (5–6 weeks old) were purchased from Beijing Huafukang Bioscience Co., Ltd., and raised in a specific-pathogen-free barrier facility. Tumour-bearing mice were established by subcutaneously injecting a suspension of 10^6 HeLa cells per mouse into the front flank of each nude mouse.
# After 14 days, the mice were sacrificed.
structure (smiles),measurement,setting,value
COc1cccc2c1C(=O)c1c(O)c3c(c(O)c1C2=O)CC(O)(C(=O)CO)CC3OC1CC(NC(=O)OC2C=CCCCCC2)C(O)C(C)O1 (stereo not shown) [TCO-Dox],time to complete liberation of Dox,[1],≤ 2 min
same,"EC50 higher than that of Dox, HUVECs",HUVECs; 72 h,more than 40 fold
same,EC50,"HUVECs; read-out: EC50, HUVECs, 72 h cytotoxicity, MTT, Activated Dox: cells pre-incubated with 500 μM 2 for 6 h, then TCO-Dox 72 h",5.81 µM
same,EC50,"HUVECs; read-out: EC50 against HUVECs, cells pre-incubated with 300 μM 2 for 6 h, then TCO-Dox 72 h",0.367 µM
same,EC50,"HUVECs; read-out: EC50 against HUVECs, cells pre-incubated with 500 μM 2 for 6 h, then TCO-Dox 72 h",0.272 µM
same,concentration of TCO-Dox in plasma,[2],relatively high concentration of TCO-Dox remaining in the blood
same,"EC50 higher than that of Dox, HeLa cells",HeLa cells; 72 h,~10 fold
same,EC50,"HeLa cells; read-out: EC50, HeLa, 72 h cytotoxicity, MTT, Activated Dox: cells pre-incubated with 500 μM 2 for 6 h, then TCO-Dox 72 h",6.79 µM
same,EC50,"HeLa cells; read-out: EC50 against HeLa cells, cells pre-incubated with 300 μM 2 for 6 h, then TCO-Dox 72 h",1.2 µM
same,EC50,"HeLa cells; read-out: EC50 against HeLa cells, cells pre-incubated with 500 μM 2 for 6 h, then TCO-Dox 72 h",0.0298 µM
same,EC50 against HeLa cells with 300 μM 2 higher than with 500 μM 2,"HeLa cells; pre-incubation 6 h, then TCO-Dox 72 h",approximately 40 fold
same,EC50 ratio CCC-HEH-2/HeLa,HeLa cells; ratio of 72 h EC50 values,0.908
same,EC50 ratio HUVECs/HeLa,HeLa cells; ratio of 72 h EC50 values,0.855
same,EC50,CCC-HEH-2 cells,6.17 µM
same,EC50,"Saos-2 cells; Homo sapiens, SAOS-2, read-out: EC50, Saos-2",7.57 µM
same,EC50 ratio CCC-HEH-2/Saos-2,Saos-2 cells; ratio of 72 h EC50 values,0.815
same,EC50 ratio HUVECs/Saos-2,Saos-2 cells; ratio of 72 h EC50 values,0.767
same,histological examination of dissected tumours (HE staining),HeLa tumours; after treatment for 14 days,the HeLa cells remained normal
same,tumour growth,"HeLa tumours; i.v., three courses (day 0, 3, 6), 50 mg kg^−1 2, 30 mg kg^−1 TCO-Dox, 5 mg kg^−1 Dox, or 50 mg kg^−1 2 then 30 mg kg^−1 TCO-Dox after 2 h",rapid growth similar to that observed in the saline control group
